Data reported in patent publication US11970452B2, “Modulators of mas-related G-protein receptor X2 and related products and methods” (Escient Pharmaceuticals, Inc., priority 2020, dated 2024).

Each compound was assayed on Human LAD2 cells (assay: Mast Cell Beta-Hexosaminidase Release Assay (versus 500 nM Cortistatin-14)). Conditions: 500 nM Cortistatin-14 agonist, read-out: MRGPR2 Antagonist Activity.
Format: cell-based
Method: Human LAD2 cells (NIH) were maintained in an incubator at 37° C. with 5% CO2 and cultured in StemPro-34 serum-free media (Gibco 10639011) supplemented with 2 mM L-glutamine, 100 U/ml penicillin, […] streptomycin and 100 ng/ml SCF (Invitrogen PEP0860), at a concentration of 2-5×10^5 cells/mL, with hemidepletion every 1-2 weeks.
Cells were transferred to SCF-Free medium at 2.5×10^5 cells/mL and kept in an incubator overnight. On the day of the assay, cells were washed twice in Assay Buffer (final concentrations 10 mM HEPES, 137 mM NaCl, 5.6 mM D-glucose, 2.7 mM KCl, 1 mM MgCl, 1.8 mM CaCl2, 0.4 mM Na2HPO4.7H2O, 0.04% BSA, pH=7.4) and plated in a 96-well v-bottom plate at 20,000 cells per well in 80 μL Assay Buffer. Antagonist compounds solubilized at 10 mM in DMSO were diluted in Assay Buffer to 10× final desired concentrations as a 10-point curve (10 μM final top concentration with 1:3 serial dilutions) and 10 μL added per well. Plates were then incubated for 1 hour at 37° C. Agonists were diluted in Assay Buffer to 10× desired concentrations and 10 μL of the appropriate agonist added to each well. The final concentration of Cortistatin-14 (Tocris 3374) used in antagonist assays was 500 nM. Final concentrations of DMSO were kept consistent across the plate. Plates were then incubated in a warm air oven for 30 minutes at 37° C., followed by centrifugation at 4° C. for 5 minutes at 450×g. 50 μL supernatant from each well was then transferred to a 96-well flat bottom plate containing 100 μL substrate solution per well (3.5 mg/mL p-Nitrophenyl-N-acetyl-β-D-glucosaminide (Sigma 487052) in Citrate Buffer containing a final concentration of 40 mM Citric Acid, 20 mM Na2HPO4.7H2O, pH=4.5). To the cell pellets left in the remaining assay buffer, 150 μL 0.1% Triton-X-100 was then added to each well, resuspended by pipetting up and down, and 50 μL cell lysates transferred to a second 96-well flat bottom plate containing 100 μL substrate solution per well. Plates containing transferred supernatant and cell lysates were then incubated in a warm air oven for 90 minutes at 37° C. After incubation, 50 μL of 400 mM Glycine buffer (pH 10.7) was added into each well and the plate was read on a Molecular Devices SpectraMax iD5 plate reader (absorbance at 405 nm with reference filter at 620 nm). After background subtraction, the percentage degranulation (percent beta-hexosaminidase release) was calculated as 100×(supernatant values)/(supernatant+lysate values), followed by analysis using GraphPad Prism software to calculate an IC50 value for each compound.
(§1) The activity ranges are denoted as follows: “+++++” denotes antagonist activity <100 nM; “++++” denotes antagonist activity between 100 and 500 nM; “+++” denotes activity between 501 and 1000 nM; “++” denotes activity between 1001 and 2500 nM; and “+” denotes activity >2500 nM

Row | Compound | IC50 [nM]
1 | O=C(N[C@H]1CC[C@@H](Nc2cc(C(F)(F)F)nc3ccc(F)cc23)CC1)c1ccc(F)cc1 [1-4, 4-fluoro-N-[(1s,4s)-4-{[6-fluoro-2-(trifluoromethyl)quinolin-4-yl]amino}cyclohexyl]benzamide] | 100 to 500
2 | O=C(N[C@H]1CC[C@@H](Nc2cc(C(F)(F)F)nc3ccc(Cl)cc23)CC1)c1ccc(F)cc1 [1-5, 4-fluoro-N-[(1s,4s)-4-{[6-chloro-2-(trifluoromethyl)quinolin-4-yl]amino}cyclohexyl]benzamide] | 100 to 500

The compounds below were run against T1, human MRGPRX2 (Homo sapiens, UniProt Q96LB1) (assay: MRGPRX2 activity: IP-One HTRF antagonist assay versus 0.3 uM Cortistatin 14). Conditions: CHO cells expressing human MRGPRX2; IP-1 HTRF; versus 0.3 uM Cortistatin 14 agonist; read-out: MRGPR2 Antagonist Activity.
T1 construct: expressed in transfected cells
T1 sequence (Q96LB1 1-330): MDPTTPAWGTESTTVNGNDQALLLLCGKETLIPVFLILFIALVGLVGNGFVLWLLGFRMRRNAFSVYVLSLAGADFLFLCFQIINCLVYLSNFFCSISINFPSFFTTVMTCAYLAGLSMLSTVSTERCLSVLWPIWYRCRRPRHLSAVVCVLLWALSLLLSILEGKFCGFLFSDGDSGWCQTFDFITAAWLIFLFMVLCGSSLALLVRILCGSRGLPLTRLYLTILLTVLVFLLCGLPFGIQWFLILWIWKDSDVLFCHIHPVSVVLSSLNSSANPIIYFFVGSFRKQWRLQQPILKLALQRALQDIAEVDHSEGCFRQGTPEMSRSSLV
Format: cell-based
Method: CHO cells stably transfected to express human MRGPRX2 were maintained in an incubator at 37° C. with 5% CO2 and grown in F12 (HAM) media with 10% fetal bovine serum (FBS), 1% Glutamax, 1% penicillin/streptomycin, 800 μg/mL Geneticin (G418), and 300 μg/mL Hygromycin B.
Cells were plated in a […] assay plate at 20,000 cells per well in 12 μL of Opti-MEM and kept in an incubator overnight. On the day of the assay, compounds solubilized at 10 mM in DMSO were added as a 10-point curve (30 uM final top concentration with 1:3 serial dilutions) using a Tecan D300E digital dispenser. Agonists were diluted in assay buffer (final concentrations of 5.7 mM Tris-HCl, 43 mM NaCl, 50 mM LiCl, pH=8) and 2 μL of the agonist Cortistatin 14 (CPC Scientific, catalog CORT-002) are added to each well. Final concentrations of agonists were 0.3 μM Cortistatin. Final concentrations of DMSO were kept consistent across the plate. Plates were incubated in the dark for 1 h at 37° C. and then for 1 h at room temperature. IP-1 standards and HTRF detection reagents were added according to the IP-One-Gq Kit purchased from Cisbio (part number 62IPAPEJ) and incubated in the dark for 1 h at room temperature. The plate was read on a Molecular Devices SpectraMax iD5 plate reader. The HTRF ratio was calculated from the raw data and graphed using GraphPad Prism to calculate an IC50 value for each compound.
as §1

Row | Compound | IC50 [nM]
3 | O=C(N[C@H]1CC[C@@H](Nc2cc(C(F)F)nc3ccc(Cl)cc23)CC1)c1ccc(F)cc1 [1-3, 4-fluoro-N-[(1s,4s)-4-{[6-chloro-2-(difluoromethyl)quinolin-4-yl]amino}cyclohexyl]benzamide] | 100 to 500
4 | O=C(N[C@H]1CC[C@@H](Nc2cc(C(F)(F)F)nc3ccccc23)CC1)c1ccccc1Cl [3-12] | 100 to 500
5 | O=C(N[C@H]1CC[C@@H](Nc2cc(C(F)(F)F)nc3ccccc23)CC1)c1ccccn1 [3-21] | 501 to 1000
6 | CCC(C(=O)N[C@H]1CC[C@@H](Nc2cc(C(F)(F)F)nc3ccccc23)CC1)c1ccccc1 (stereo partly shown) [3-24] | 1000 to 2500
7 | COc1ccc(C(=O)N[C@H]2CC[C@@H](Nc3cc(C(F)(F)F)nc4ccccc34)CC2)cc1F [3-27] | 501 to 1000
8 | O=C(N[C@H]1CC[C@@H](Nc2cc(C(F)(F)F)nc3ccccc23)CC1)c1cccs1 [3-36] | 501 to 1000
9 | O=C(N[C@H]1CC[C@@H](Nc2cc(C(F)(F)F)nc3ccccc23)CC1)c1cccc(F)c1 [3-42] | 100 to 500
10 | COc1ccc(C(=O)N[C@H]2CC[C@@H](Nc3cc(C(F)(F)F)nc4ccc(Cl)cc34)CC2)c(C)n1 [4-6] | 501 to 1000
11 | CNc1cccc(C(=O)N[C@H]2CC[C@@H](Nc3cc(C(F)(F)F)nc4ccc(Cl)cc34)CC2)c1 [4-8] | 100 to 500
12 | O=C(N[C@H]1CC[C@@H](Nc2cc(C(F)(F)F)nc3ccc(Cl)cc23)CC1)c1ccc2[nH]c(-c3ccncc3)nc2c1 [4-23] | < 100
13 | O=C(N[C@H]1CC[C@@H](Nc2cc(C(F)(F)F)nc3ccc(Cl)cc23)CC1)c1ccc2nc(Cl)sc2c1 [4-57] | 501 to 1000
14 | O=C(N[C@H]1CC[C@@H](Nc2cc(C(F)(F)F)nc3ccc(Cl)cc23)CC1)c1n[nH]c2c1COCC2 [4-60] | 501 to 1000
15 | Cn1cc(I)c(C(=O)N[C@H]2CC[C@@H](Nc3cc(C(F)(F)F)nc4ccc(Cl)cc34)CC2)n1 [4-90] | 501 to 1000
16 | CN(C)c1ccc(C(=O)N[C@H]2CC[C@@H](Nc3cc(C(F)(F)F)nc4ccc(Cl)cc34)CC2)cc1 [4-102] | 100 to 500
17 | CC(=O)Nc1ccc(C(=O)N[C@H]2CC[C@@H](Nc3cc(C(F)(F)F)nc4ccc(Cl)cc34)CC2)cc1 [4-103] | < 100
18 | O=C(N[C@H]1CC[C@@H](Nc2cc(C(F)(F)F)nc3ccc(Cl)cc23)CC1)c1csnn1 [4-107] | 501 to 1000
19 | O=C(N[C@H]1CC[C@@H](Nc2cc(C(F)(F)F)nc3ccc(Cl)cc23)CC1)C1CCN(C(=O)c2ccccc2Cl)CC1 [4-122] | > 2500
20 | CS(=O)(=O)c1ccc(C(=O)N[C@H]2CC[C@@H](Nc3cc(C(F)(F)F)nc4ccc(Cl)cc34)CC2)c(Cl)c1 [4-123] | 100 to 500
21 | CC(C)Cc1cc(C(=O)N[C@H]2CC[C@@H](Nc3cc(C(F)(F)F)nc4ccc(Cl)cc34)CC2)n(C)n1 [4-129] | 1000 to 2500
22 | O=C(CCOc1cccc(F)c1)N[C@H]1CC[C@@H](Nc2cc(C(F)(F)F)nc3ccc(Cl)cc23)CC1 [4-134] | > 2500
23 | Cc1cc(C(F)(F)F)nn1CC(=O)N[C@H]1CC[C@@H](Nc2cc(C(F)(F)F)nc3ccc(Cl)cc23)CC1 [4-141] | 1000 to 2500

Row | Compound | IC50 [nM]
24 | O=C(N[C@H]1CC[C@@H](Nc2cc(C(F)(F)F)nc3ccc(Cl)cc23)CC1)c1ccc2oc(=O)ccc2c1 [4-145] | 100 to 500
25 | O=C(N[C@H]1CC[C@@H](Nc2cc(C(F)(F)F)nc3ccc(Cl)cc23)CC1)c1cccn1-c1ccccc1 [4-162] | 1000 to 2500
26 | O=C1Nc2c(C(=O)N[C@H]3CC[C@@H](Nc4cc(C(F)(F)F)nc5ccc(Cl)cc45)CC3)cccc2C1=O [4-164] | 100 to 500
27 | CCCS(=O)(=O)Nc1ccc(F)c(C(=O)N[C@H]2CC[C@@H](Nc3cc(C(F)(F)F)nc4ccc(Cl)cc34)CC2)c1F [4-173] | 100 to 500
28 | CC1C(C(=O)N[C@H]2CC[C@@H](Nc3cc(C(F)(F)F)nc4ccc(Cl)cc34)CC2)CC2CC1C2(C)C (stereo partly shown) [4-200] | 1000 to 2500
29 | CCCc1nnsc1C(=O)N[C@H]1CC[C@@H](Nc2cc(C(F)(F)F)nc3ccc(Cl)cc23)CC1 [4-209] | 1000 to 2500
30 | O=C(N[C@H]1CC[C@@H](Nc2cc(C(F)(F)F)nc3ccccc23)CC1)c1ccnc2ccccc12 [4-230] | 1000 to 2500
31 | O=C(N[C@H]1CC[C@@H](Nc2cc(C(F)(F)F)nc3ccccc23)CC1)c1ccc(Cl)s1 [4-241] | 501 to 1000
32 | N#Cc1ccc(C(=O)N[C@H]2CC[C@@H](Nc3cc(C(F)(F)F)nc4ccccc34)CC2)s1 [4-242] | 1000 to 2500
33 | N#Cc1csc(C(=O)N[C@H]2CC[C@@H](Nc3cc(C(F)(F)F)nc4ccccc34)CC2)c1 [4-243] | 501 to 1000
34 | O=C(N[C@H]1CC[C@@H](Nc2cc(C(F)(F)F)nc3ccccc23)CC1)c1cc(Cl)cs1 [4-251] | 501 to 1000
35 | COc1ccc(C(=O)N[C@H]2CC[C@@H](Nc3cc(C(F)(F)F)nc4ccccc34)CC2)cc1N(C)C [4-258] | 501 to 1000
36 | O=C(N[C@H]1CC[C@@H](Nc2cc(C(F)(F)F)nc3ccccc23)CC1)c1ccc2ncccc2n1 [4-265] | 1000 to 2500
37 | O=C(N[C@H]1CC[C@@H](Nc2cc(C(F)(F)F)nc3ccccc23)CC1)c1coc2ccccc12 [4-272] | 100 to 500
38 | CC(C)C(=O)Nc1cccc(C(=O)N[C@H]2CC[C@@H](Nc3cc(C(F)(F)F)nc4ccc(Cl)cc34)CC2)c1 [4-279] | 100 to 500
39 | CN(C)C(=O)Nc1cccc(C(=O)N[C@H]2CC[C@@H](Nc3cc(C(F)(F)F)nc4ccc(Cl)cc34)CC2)c1 [4-281] | 100 to 500
40 | CCNc1cccc(C(=O)N[C@H]2CC[C@@H](Nc3cc(C(F)(F)F)nc4ccc(Cl)cc34)CC2)c1 [4-282] | 100 to 500
41 | O=C1CCc2ccc(C(=O)N[C@H]3CC[C@@H](Nc4cc(C(F)(F)F)nc5ccc(Cl)cc45)CC3)cc2N1 [4-283] | 100 to 500
42 | O=C(N[C@H]1CC[C@@H](Nc2cc(C(F)(F)F)nc3ccccc23)CC1)[C@H]1C[C@@H]1c1ccccc1 [4-291] | 1000 to 2500
43 | CNC(=O)Nc1cccc(C(=O)N[C@H]2CC[C@@H](Nc3cc(C(F)(F)F)nc4ccc(Cl)cc34)CC2)c1 [Example 5A] | < 100
